In BindingDB's records for PubMed 9536032 (Sibia Neurosciences, 1998) one finds Ki data, which are given here for 12 molecules.

By Ki is commonly meant the equilibrium dissociation constant of an inhibitor or competing ligand from its target. Lower therefore signals tighter binding.

Several values for one entry are separate records, joined by “and”; a condition that tells them apart may be missing. Equal values may be shown once.

Assay [1] has as its target Glutamate receptor 3 (Homo sapiens, UniProt P42263).
For assay [2], the target named is Glutamate receptor 3 (Rattus norvegicus, UniProt P19492).
Glutamate receptor 3 (Rattus norvegicus, UniProt P19492), sequence (P19492 whole entry): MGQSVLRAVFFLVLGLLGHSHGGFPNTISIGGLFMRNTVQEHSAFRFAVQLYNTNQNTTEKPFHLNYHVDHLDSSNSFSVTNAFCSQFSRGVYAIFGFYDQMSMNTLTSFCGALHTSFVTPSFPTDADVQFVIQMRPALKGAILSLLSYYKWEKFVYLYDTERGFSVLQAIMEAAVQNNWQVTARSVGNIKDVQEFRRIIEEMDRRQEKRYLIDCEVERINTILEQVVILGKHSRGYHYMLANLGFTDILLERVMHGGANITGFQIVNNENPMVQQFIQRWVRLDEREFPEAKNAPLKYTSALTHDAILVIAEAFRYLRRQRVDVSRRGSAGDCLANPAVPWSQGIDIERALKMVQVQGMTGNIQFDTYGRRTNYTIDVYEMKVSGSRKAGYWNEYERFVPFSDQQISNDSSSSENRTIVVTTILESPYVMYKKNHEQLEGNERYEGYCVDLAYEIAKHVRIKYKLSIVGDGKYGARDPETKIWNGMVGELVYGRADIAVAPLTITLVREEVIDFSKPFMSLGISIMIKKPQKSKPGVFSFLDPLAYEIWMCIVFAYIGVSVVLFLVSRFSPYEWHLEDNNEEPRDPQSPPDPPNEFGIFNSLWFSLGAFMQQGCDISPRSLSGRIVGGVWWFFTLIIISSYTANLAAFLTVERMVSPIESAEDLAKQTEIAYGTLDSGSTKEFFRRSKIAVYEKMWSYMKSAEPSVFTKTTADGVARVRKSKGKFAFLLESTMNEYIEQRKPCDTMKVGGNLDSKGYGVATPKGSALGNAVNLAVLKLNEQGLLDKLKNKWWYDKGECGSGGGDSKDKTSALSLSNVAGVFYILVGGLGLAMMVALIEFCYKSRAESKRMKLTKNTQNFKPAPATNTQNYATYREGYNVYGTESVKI

Glutamate receptor 3 (Homo sapiens, UniProt P42263), sequence (P42263 whole entry): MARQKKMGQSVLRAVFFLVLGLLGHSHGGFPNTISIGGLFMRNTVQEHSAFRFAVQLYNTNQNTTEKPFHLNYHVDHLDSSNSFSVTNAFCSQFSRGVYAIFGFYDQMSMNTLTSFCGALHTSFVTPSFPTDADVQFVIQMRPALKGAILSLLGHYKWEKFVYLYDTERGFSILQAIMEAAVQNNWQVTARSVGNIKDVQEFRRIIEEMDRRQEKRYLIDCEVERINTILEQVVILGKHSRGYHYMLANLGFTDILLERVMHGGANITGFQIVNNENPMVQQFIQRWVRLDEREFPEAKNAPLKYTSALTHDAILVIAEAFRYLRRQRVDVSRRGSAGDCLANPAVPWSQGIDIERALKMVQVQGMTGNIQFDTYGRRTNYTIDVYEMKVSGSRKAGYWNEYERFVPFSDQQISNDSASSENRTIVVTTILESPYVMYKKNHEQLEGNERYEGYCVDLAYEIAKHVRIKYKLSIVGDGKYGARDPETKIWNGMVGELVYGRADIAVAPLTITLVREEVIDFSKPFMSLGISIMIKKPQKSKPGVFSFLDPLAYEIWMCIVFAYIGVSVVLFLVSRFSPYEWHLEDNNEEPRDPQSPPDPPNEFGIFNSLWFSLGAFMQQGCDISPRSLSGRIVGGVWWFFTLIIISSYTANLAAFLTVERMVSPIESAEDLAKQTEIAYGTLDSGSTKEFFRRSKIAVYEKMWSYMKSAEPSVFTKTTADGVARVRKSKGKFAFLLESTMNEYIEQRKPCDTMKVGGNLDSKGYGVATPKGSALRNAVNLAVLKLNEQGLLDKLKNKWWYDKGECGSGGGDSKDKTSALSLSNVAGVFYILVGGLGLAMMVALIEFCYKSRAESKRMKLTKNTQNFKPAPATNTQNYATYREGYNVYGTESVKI

In assay [1], `CC(C)[C@H](NC(=O)[C@H](CCCCN)NC(=O)[C@@H](Cc1c[nH]c2ccccc12)NC(=O)[C@H](Cc1ccc(O)cc1)NC(=O)[C@H](CS)NC(=O)[C@H](N)Cc1ccc2ccccc2c1)C(=O)N[C@@H](CS)C(=O)N[C@@H](Cc1ccc2ccccc2c1)C(N)=O` [Dnal,Cys,Tyr,DTrp,Lys,Val,Cys,Nal-nh2] came in with an inhibitory constant (Ki) of 494 nM.

In the case of `O=C1N=c2cc([N+](=O)[O-])c([N+](=O)[O-])cc2=NC1=O` [NSC_3140], the Ki in assay [1] is 2090 nM and 1660 nM.

For the molecule `O=C1N=c2c3c(ccc2=C1NO)C([N+](=O)[O-])CCC3` (centres undefined) [NSC_5311098], the Ki in assay [2] and in assay [1] was over 10000 nM throughout.

Regarding `NC(CCC(=O)NCS(=O)(=O)O)C(=O)O` (centres undefined) [CAS_90237-02-8], the Ki in assay [2] and in assay [1] was over 10000 nM throughout.

`Cc1onc(OCC(=O)O)c1CC(N)C(=O)O` (centres undefined) [2-Amino-3-(3-carboxymethoxy-5-methyl-isoxazol-4-yl)-propionic acid(AMOA)]: the inhibitory constant (Ki) in assay [2] and in assay [1] was over 10000 nM each time.

The molecule `N[C@@H](Cn1cc(F)c(=O)[nH]c1=O)C(=O)O` [(S)-5-Fluorowillardiine] yielded a Ki in assay [2] of 18 nM.

On to `CC1=NN=C(c2ccc(N)cc2)c2cc3c(cc2C1)OCO3` [GYKI-52466], for which the Ki in assay [2] and in assay [1] was over 10000 nM in each case.

For `C=C(C)[C@H]1CN[C@H](C(=O)O)[C@H]1CC(=O)O` [Digensaeure], the Ki in assay [1] is 2630 nM and 8050 nM.

`CN1Cc2c(S(=O)(=O)N(C)C)cc3c(c2C1)NC(=O)C3N=O` (centres undefined): the Ki in assay [2] is 782 nM; in assay [1] it was 1430 nM and > 10000 nM and 8450 nM.

With `N#Cc1cc2nc(O)c(O)nc2cc1[N+](=O)[O-]` [7-Cyano-3-hydroxy-6-nitro-quinoxalin-2-ol anion], the affinity in assay [2], expressed as Ki, was 470 nM.

As for `C/C(=C\C=C\[C@@H](C)C(=O)O)[C@H]1CN[C@H](C(=O)O)[C@H]1CC(=O)O`, the Ki in assay [2] is 3540 nM; in assay [1], 2770 nM and 4590 nM.

Turning to `O=C1N=c2cc(N(O)O)c(-n3ccnc3)cc2=NC1=O` [CAS_3035216], the inhibition constant Ki in assay [2] is 407 nM; in assay [1], 630 nM and 2450 nM and 1960 nM.
